Strand notation (5' to 3'): a small letter for the sugar, then the base; units joined by * are phosphorothioate-linked, units joined directly phosphodiester-linked; [ ] holds rarer units or linkages, { } end groups; capitals alone tell only the bases. e = 2'-O-(2-methoxyethyl) (MOE); [5mC] = 5-methylcytosine; d = 2'-deoxy (DNA)
What was measured:
DGAT2 mRNA = assay: Antisense inhibition of DGAT2 in A10 cells, 75 nM (Table 81); type: cell-based, rat; conditions: approximately 24 hours
Protocol: Short antisense compounds targeted to a DGAT2 nucleic acid were tested for their effects on DGAT2 mRNA in vitro. Cultured A10 cells in a 96-well plate were treated with 75 nM of short antisense compound. After a treatment period of approximately 24 hours, RNA was isolated from the cells and DGAT2 mRNA levels were measured by quantitative real-time PCR, as described herein. DGAT2 mRNA levels were adjusted according to total RNA content as measured by RIBOGREEN®. Results are presented as percent inhibition of DGAT2, relative to untreated control cells in Table 81.

rat DGAT2 mRNA = assay: Dose-dependent inhibition of DGAT2 in A10 cells (Tables 82, 83); type: cell-based
Protocol: Additional short antisense compounds targeted to DGAT2 mRNA were tested in vitro in a dose-response experiment. A10 cells were prepared as described above and treated with 6.25, 12.5, 25.0, 50.0, 100.0, and 200.0 nM short antisense compounds to determine if DGAT2 inhibition occurs in a dose-dependent manner. […] Results are presented as percent inhibition, relative to untreated control cells.
Additional short antisense compounds targeted to DGAT2 mRNA were tested in vitro. A10 cells were prepared as described above and treated with 0.62, 1.85, 5.56, 16.67, 50.0, and 150.0 nM short antisense compounds to determine if DGAT2 inhibition occurs in a dose-dependent manner. DGAT2 mRNA was measured using quantitative real-time PCR, as described herein. […] Results are presented as percent inhibition of rat DGAT2, relative to untreated control cells.

[1] = Organ weights: liver, WAT, spleen, kidney, GCGR study (Table 33); type: in vivo, mouse; conditions: 48 h
Protocol: (§1) Eight-week old male C57/BL6 mice (Jackson Laboratory, Bar Harbor, Me.) were administered a single dose of GCGR oligonucleotide by intraperitoneal injection at a concentration of […]. Each dose group consisted of four animals. Shown in Table 31 are the sequences, motifs and conjugates of the GCGR antisense compounds used in this study. Bolded residues indicate 2′-O-methoxyethyl (2′-MOE) moieties. All compounds comprise phosphorothioate internucleoside linkages throughout and each cytosine is replaced with 5-methylcytosine. ISIS 386626, ISIS 386627 and ISIS 386628 further comprise a C16 conjugate group attached to the 2′-O position of the sugar via a diamide linkage (2′-OCH2C(═O)N(H)(CH2)4N(H)C(═O)—(CH2)15CH3). GCGR antisense compounds target published GCGR sequences, including Genbank® Accession No. BC031885.1 (SEQ ID NO: 7).
(§2) Mice were sacrificed 48 hours following injection to determine serum transaminase levels (Table 32); liver, white adipose tissue (WAT), spleen and kidney weight (Table 33); cholesterol, triglyceride and glucose levels (Table 34); GCGR mRNA levels (Tables 35-41); and full-length and total oligonucleotide concentration in liver and kidney (Table 42). Endpoints were assessed using methods described herein and well known to those of ordinary skill in the art. Data is included from a pre-treatment bleed (Pre-Bleed) and post-treatment bleed (Post-Bleed).

GCGR mRNA = GCGR mRNA levels in liver, C57/BL6 mice, single i.p. dose (Tables 35-41); type: in vivo, mouse
Protocol: Prior to quantitative PCR analysis, primer-probe sets specific to the target gene being measured were evaluated for their ability to be “multiplexed” with a GAPDH amplification reaction. After isolation the RNA is subjected to sequential reverse transcriptase (RT) reaction and real-time PCR, both of which are performed in the same well. RT and PCR reagents were obtained from Invitrogen Life Technologies (Carlsbad, Calif.). […] The RT reaction was carried out by incubation for 30 minutes at 48° C. Following a 10 minute incubation at 95° C. to activate the PLATIN 9M® Taq, 40 cycles of a two-step PCR protocol were carried out: 95° C. for 15 seconds (denaturation) followed by 60° C. for 1.5 minutes (annealing/extension).
170 μL of RiboGreen® working reagent (RiboGreen® reagent diluted 1:350 in 10 mM Tris-HCl, 1 mM EDTA, pH 7.5) was pipetted into a 96-well plate containing 30 μL purified cellular RNA. The plate was read in a CytoFluor® 4000 (PE Applied Biosystems) with excitation at 485 nm and emission at 530 nm.
as §1, §2
To determine whether the phenotypic changes shown above correlated with a decrease in GCGR mRNA, treated animals were evaluated for levels of target mRNA in liver by real time PCR according to methods described herein. Tables 35 to 41 show results from direct comparisons of the antisense compounds targeting GCGR nucleic acid for their effect on target expression. Results are expressed as percent of saline control.

[2] = ALT & AST levels and toxic effects, GCGR study (Table 32); type: in vivo, mouse; conditions: C57/BL6 mice, pre-treatment bleed
Protocol: as §1, §2

[3] = Triglyceride, cholesterol and glucose levels, pre-bleed and post-bleed, GCGR study (Table 34); type: in vivo, mouse; design: Triglyceride (TRIG) Pre-Bleed / Triglyceride (TRIG) Post-Bleed / Cholesterol (CHOL) Pre-Bleed / Cholesterol (CHOL) Post-Bleed / Glucose Pre-Bleed / Glucose Post-Bleed: unit not given here
Protocol: as §1, §2

mouse SGLT2 mRNA = assay: Mouse SGLT2 mRNA in kidney, additional 1-10-1 and 2-8-2 MOE gapmers (Table 68); type: in vivo; conditions: Balb/c mouse kidney
Protocol: 1-10-1 and 2-8-2 MOE gapmer short antisense compounds were designed to target different regions of the mouse SGLT2 RNA but have complementarity across species. […] All cytidine residues are 5-methylcytidines.
The short antisense compounds were analyzed for their effect on mouse SGLT2 mRNA levels in vivo. Data was taken from three experiments in which male 6-week old Balb/c mice were dosed twice per week for three weeks with 0.5, 0.1, or 0.02 umol/kg of either a 1-10-1 or 2-8-2 MOE gapmer given by intraperitoneal injection. Mice were sacrificed 48 hours following last administration and evaluated for SGLT2 levels in kidney. Target levels were determined by RT, real-time PCR as described by other examples herein. PCR results were normalized to an internal ISIS control.

[4] = 6.25 mg/kg group, pre-treatment bleed
[5] = 6.25 mg/kg single i.p., post-treatment bleed
[6] = 12.5 mg/kg group, pre-treatment bleed
[7] = 12.5 mg/kg single i.p., post-treatment bleed
[8] = 25 mg/kg group, pre-treatment bleed
[9] = 25 mg/kg single i.p., post-treatment bleed
[10] = 50 mg/kg group, pre-treatment bleed
[11] = 50 mg/kg single i.p., post-treatment bleed

372491 (antisense eA*e[5mC]*eA*dT*dG*dA*dG*dG*dA*dT*dG*dA*d[5mC]*eA*e[5mC]*eT) [compound 372491]
% Control (DGAT2 mRNA): 80 % Control

372500 (antisense eG*eT*eG*dT*dG*dT*d[5mC]*dT*dT*d[5mC]*dA*d[5mC]*d[5mC]*eA*eG*e[5mC]) [compound 372500]
% Control (DGAT2 mRNA): 16 % Control
percent inhibition of rat DGAT2 (rat DGAT2 mRNA; 0.62 nM (Table 83)): 0%
percent inhibition of rat DGAT2 (rat DGAT2 mRNA; 1.85 nM (Table 83)): 0%
percent inhibition of rat DGAT2 (rat DGAT2 mRNA; 5.56 nM (Table 83)): 0%
percent inhibition of rat DGAT2 (rat DGAT2 mRNA; 16.67 nM (Table 83)): 18%
percent inhibition of rat DGAT2 (rat DGAT2 mRNA; 50 nM (Table 83)): 64%
percent inhibition of rat DGAT2 (rat DGAT2 mRNA; 150 nM (Table 83)): 88%

372501 (antisense eT*eT*eG*dT*dG*dT*dG*dT*d[5mC]*dT*dT*d[5mC]*dA*e[5mC]*e[5mC]*eA) [compound 372501]
% Control (DGAT2 mRNA): 28 % Control
percent inhibition of rat DGAT2 (rat DGAT2 mRNA; 0.62 nM (Table 83)): 1%
percent inhibition of rat DGAT2 (rat DGAT2 mRNA; 1.85 nM (Table 83)): 5%
percent inhibition of rat DGAT2 (rat DGAT2 mRNA; 5.56 nM (Table 83)): 10%
percent inhibition of rat DGAT2 (rat DGAT2 mRNA; 16.67 nM (Table 83)): 11%
percent inhibition of rat DGAT2 (rat DGAT2 mRNA; 50 nM (Table 83)): 25%
percent inhibition of rat DGAT2 (rat DGAT2 mRNA; 150 nM (Table 83)): 68%

372503 (antisense eG*e[5mC]*eA*dG*dG*dT*dT*dG*dT*dG*dT*dG*dT*e[5mC]*eT*eT) [compound 372503]
% Control (DGAT2 mRNA): 35 % Control
percent inhibition of rat DGAT2 (rat DGAT2 mRNA; 0.62 nM (Table 83)): 7%
percent inhibition of rat DGAT2 (rat DGAT2 mRNA; 1.85 nM (Table 83)): 10%
percent inhibition of rat DGAT2 (rat DGAT2 mRNA; 5.56 nM (Table 83)): 4%
percent inhibition of rat DGAT2 (rat DGAT2 mRNA; 16.67 nM (Table 83)): 25%
percent inhibition of rat DGAT2 (rat DGAT2 mRNA; 50 nM (Table 83)): 54%
percent inhibition of rat DGAT2 (rat DGAT2 mRNA; 150 nM (Table 83)): 80%

372569 (antisense e[5mC]*eA*dT*dG*dA*dG*dG*dA*dT*dG*dA*d[5mC]*eA*e[5mC]) [compound 372569]
% Control (DGAT2 mRNA): 104 % Control

386628 (antisense TGTCTTGCTGCTTT; chemistry not fully specified) [compound 386628]
Organ Weights: Kidney ([1]; 6.25 mg/kg single i.p.): 102 % saline control
Organ Weights: Liver ([1]; 6.25 mg/kg single i.p.): 98 % saline control
Organ Weights: Spleen ([1]; 6.25 mg/kg single i.p.): 151 % saline control
Organ Weights: WAT ([1]; 6.25 mg/kg single i.p.): 106 % saline control
Organ Weights: Kidney ([1]; 12.5 mg/kg single i.p.): 99 % saline control
Organ Weights: Liver ([1]; 12.5 mg/kg single i.p.): 101 % saline control
Organ Weights: Spleen ([1]; 12.5 mg/kg single i.p.): 114 % saline control
Organ Weights: WAT ([1]; 12.5 mg/kg single i.p.): 111 % saline control
Organ Weights: Kidney ([1]; 25 mg/kg single i.p.): 109 % saline control
Organ Weights: Liver ([1]; 25 mg/kg single i.p.): 102 % saline control
Organ Weights: Spleen ([1]; 25 mg/kg single i.p.): 113 % saline control
Organ Weights: WAT ([1]; 25 mg/kg single i.p.): 97 % saline control
Organ Weights: Kidney ([1]; 50 mg/kg single i.p.): 99 % saline control
Organ Weights: Liver ([1]; 50 mg/kg single i.p.): 104 % saline control
Organ Weights: Spleen ([1]; 50 mg/kg single i.p.): 126 % saline control
Organ Weights: WAT ([1]; 50 mg/kg single i.p.): 100 % saline control
GCGR mRNA levels (GCGR mRNA; 6.25 mg/kg, Table 38 comparison ISIS 148364 & ISIS 386628): 77% of saline control
GCGR mRNA levels (GCGR mRNA; 6.25 mg/kg, Table 41 comparison ISIS 386628 & ISIS 386594): 97% of saline control
GCGR mRNA levels (GCGR mRNA; 12.5 mg/kg, Table 38 comparison ISIS 148364 & ISIS 386628): 53% of saline control
GCGR mRNA levels (GCGR mRNA; 12.5 mg/kg, Table 41 comparison ISIS 386628 & ISIS 386594): 38% of saline control
GCGR mRNA levels (GCGR mRNA; 25 mg/kg, Table 38 comparison ISIS 148364 & ISIS 386628): 18% of saline control
GCGR mRNA levels (GCGR mRNA; 25 mg/kg, Table 41 comparison ISIS 386628 & ISIS 386594): 13% of saline control
GCGR mRNA levels (GCGR mRNA; 50 mg/kg, Table 38 comparison ISIS 148364 & ISIS 386628): 2% of saline control
GCGR mRNA levels (GCGR mRNA; 50 mg/kg, Table 41 comparison ISIS 386628 & ISIS 386594): 4% of saline control
ALT Pre-Bleed ([2]; dose group 6.25 mg/kg): 22 IU/L
AST Pre-Bleed ([2]; dose group 6.25 mg/kg): 40 IU/L
ALT Pre-Bleed ([2]; dose group 12.5 mg/kg): 28 IU/L
AST Pre-Bleed ([2]; dose group 12.5 mg/kg): 42 IU/L
ALT Pre-Bleed ([2]; dose group 25 mg/kg): 24 IU/L
AST Pre-Bleed ([2]; dose group 25 mg/kg): 40 IU/L
ALT Pre-Bleed ([2]; dose group 50 mg/kg): 28 IU/L
AST Pre-Bleed ([2]; dose group 50 mg/kg): 44 IU/L
Cholesterol (CHOL) Pre-Bleed [3, 4]: 83
Triglyceride (TRIG) Pre-Bleed [3, 4]: 117
Cholesterol (CHOL) Post-Bleed [3, 5]: 85
Triglyceride (TRIG) Post-Bleed [3, 5]: 121
Cholesterol (CHOL) Pre-Bleed [3, 6]: 90
Triglyceride (TRIG) Pre-Bleed [3, 6]: 90
Cholesterol (CHOL) Post-Bleed [3, 7]: 94
Glucose Post-Bleed [3, 7]: 240
Triglyceride (TRIG) Post-Bleed [3, 7]: 123
Cholesterol (CHOL) Pre-Bleed [3, 8]: 84
Glucose Pre-Bleed [3, 8]: 210
Triglyceride (TRIG) Pre-Bleed [3, 8]: 102
Cholesterol (CHOL) Post-Bleed [3, 9]: 85
Triglyceride (TRIG) Post-Bleed [3, 9]: 129
Cholesterol (CHOL) Pre-Bleed [3, 10]: 88
Triglyceride (TRIG) Pre-Bleed [3, 10]: 102
Cholesterol (CHOL) Post-Bleed [3, 11]: 95
Triglyceride (TRIG) Post-Bleed [3, 11]: 98

ISIS 388627 (eG*e[5mC]*dA*d[5mC]*dA*d[5mC]*dA*dG*d[5mC]*dT*eG*e[5mC])
% change in SGLT2 expression relative to saline (mouse SGLT2 mRNA; 0.02 umol/kg i.p. twice per week for three weeks): −38%
% change in SGLT2 expression relative to saline (mouse SGLT2 mRNA; 0.1 umol/kg i.p. twice per week for three weeks): −50%
% change in SGLT2 expression relative to saline (mouse SGLT2 mRNA; 0.5 umol/kg i.p. twice per week for three weeks): −65%

From patent US8372967B2, “Compounds and methods for modulating expression of GCCR” (Isis Pharmaceuticals, Inc., priority 2006, dated 2013)
